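Five compound concentrations were applied to cells in 96-well plates for 48 hours; endpoints were derived by simple linear interpolation of the resulting dose-response curve. GI50 = concentration required for 50% inhibition of growth. TGI: concentration producing complete growth inhibition.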
Assays:
Experiment in all cases: growth of human tumour cells (NCI), 48 h
[1] = tested on: K-562 leukemia
[2] = tested on: TK-10 renal
[3] = tested on: SK-OV-3 ovarian
[4] = tested on: HOP-62 NSCLC
[5] = tested on: CCRF-CEM leukemia
[6] = tested on: A498 renal
[7] = tested on: SF-539 CNS
[8] = tested on: SNB-75 CNS
[9] = tested on: NCI-H226 lung
[10] = tested on: SK-MEL-2 melanoma

| Compound | TGI [1] | TGI [2] | TGI [3] | TGI [4] | TGI [5] | TGI [6] | TGI [7] | TGI [8] | TGI [9] | TGI [10] | GI50 [1] | GI50 [2] | GI50 [3] | GI50 [4] | GI50 [10] | GI50 [6] | GI50 [7] | GI50 [8] | GI50 [9] | GI50 [5] |
| --- | --- | --- | --- | --- | --- | --- | --- | --- | --- | --- | --- | --- | --- | --- | --- | --- | --- | --- | --- | --- |
| Cc1ccc(NC(=O)/C(=N\Nc2ccc([N+](=O)[O-])cc2[N+](=O)[O-])C2C(=O)NC(=O)NC2=O)cc1 | > 100 µM | > 100 µM | > 100 µM | > 100 µM | > 100 µM | > 100 µM | 90.9 µM | > 100 µM | > 100 µM |  |  |  |  |  |  |  |  |  |  |  |
| CC(=O)Oc1ccc(O)c(O)c1C/C=C(\C)CC/C=C(\C)CC/C=C(\C)CCC=C(C)C |  | 2.6 µM |  | 2.81 µM |  |  | 1.62 µM | 1.92 µM | 2.27 µM | 2.9 µM |  |  |  |  |  |  |  |  |  |  |
| Cc1ccc(C(O)c2cnc(C)n2Cc2ccccc2)cc1 (stereo not drawn) | > 100 µM | > 100 µM | > 100 µM | > 100 µM |  | > 100 µM | > 100 µM | > 100 µM | > 100 µM | > 100 µM |  |  |  |  |  |  |  |  |  |  |
| NC(C(=O)[O-])C(=O)[O-].NC1CCCCC1N.[Pt+4] | > 100 µM | 8.61 µM | > 100 µM | > 100 µM |  | > 100 µM | > 100 µM | > 100 µM |  | > 100 µM | 5.8 µM | 3.1 µM | 13.2 µM | 8.45 µM | > 100 µM | 11.6 µM | 5.36 µM | > 100 µM |  |  |
| O=C(O)c1cc(=O)c2[nH]c3ccccc3c2s1 | > 100 µM | > 100 µM | > 100 µM | > 100 µM | > 100 µM |  |  | > 100 µM |  | > 100 µM |  |  |  |  |  |  |  |  |  |  |
| Nc1nc2c(c(=O)[nH]1)CN(c1ccc(S(N)(=O)=O)cc1)CN2 | > 100 µM | > 100 µM |  | > 100 µM |  | > 100 µM |  |  | > 100 µM | > 100 µM |  |  |  |  |  |  |  |  |  |  |
| CN(CCOc1ccc(C#N)cc1)CCOc1ccc(C#N)cc1 | > 100 µM | > 100 µM | > 100 µM | > 100 µM |  | > 100 µM | > 100 µM | > 100 µM | > 100 µM |  | 16.7 µM | 28.7 µM | > 100 µM | > 100 µM |  | 14.8 µM | > 100 µM | > 100 µM | > 100 µM |  |
| CC(=O)n1c2ccccc2c2nc3nc(Oc4ccc(C)cc4)c4ccccc4c3cc21 | > 100 µM |  | > 100 µM | > 100 µM | > 100 µM |  | > 100 µM | > 100 µM | > 100 µM | > 100 µM |  |  |  |  |  |  |  |  |  |  |
| C[C@@H]1CN(CC(=O)N2CC(C)(C)c3nc(CO)c(Cc4ccc(F)cc4)cc32)[C@@H](CN2CCOC[C@H]2C)CN1 |  | > 100 µM | 0.088 µM | > 100 µM | > 100 µM | 96.2 µM | 23.6 µM | > 100 µM | > 100 µM | 63.9 µM |  | > 100 µM | 0.0235 µM | > 100 µM | 5.01 µM | 25.8 µM | 6.85 µM | 19.7 µM | > 100 µM | 31.3 µM |
| COc1cc(Nc2nc(N[C@H]3CCCC[C@@H]3N)nc3cc[nH]c(=O)c23)cc(OC)c1 | 10.3 µM | 19.3 µM | 17.5 µM | 20.8 µM | 11.8 µM | 10.1 µM | 2.64 µM | 17.3 µM | 12.4 µM |  | 2.47 µM | 1.84 µM | 0.388 µM | 3.21 µM |  | 1.01 µM | 0.454 µM | 3.27 µM | 1.88 µM | 1.39 µM |

From PubChem BioAssay (NCI)
